Assay results taken from patent US20070212716A1, “Nezara viridula Ecdysone Receptor” (Commonwealth Scientific & Industrial Research Org., priority 2006, published 2007).

Experiments:
NvEcR11DEF-NvUSPDEF = NvEcR11DEF-NvUSPDEF (Nezara viridula, UniProt E5L6Y2); experiment: Competition binding with [3H]ponasterone A, NvEcR11DEF-NvUSPDEF; settings: for Ki: calculated from IC50 with the Cheng-Prusoff equation; for IC50: competition with 1.3 nM bindable [3H]ponasterone A
Description: (§1) Ligand binding was measured by a [^3H]ponasterone A binding assay which involved trapping of [^3H]ponasterone A-receptor protein complex on glass fibre discs and washing away unbound steroid before scintillation counting in a Packard Tri-carb scintillation analyser. All such assays, unless otherwise stated, were conducted at the same concentration of bindable [^3H]ponasterone A (2.2 nM, after correcting for the fraction of radioactive material that could never be bound no matter how much receptor was added). Binding by the receptor was expressed in terms of arbitrary units (U) that, in the linear range of the assay (i.e. up to 30 000 cpm bound per filter), were directly proportional to filter-bound cpm. Historically, IU was defined as the amount of [^3H]ponasterone A binding conveyed by a fixed volume of a specific receptor preparation. Differences in the assay over time were corrected for empirically by re-assaying the reference receptor preparation with each new batch of [^3H]ponasterone A and calculating a batch-specific adjustment that was incorporated into the numerical factor used to convert filter-bound cpm into ligand binding units. On average, 1 pmol of receptor-bound [^3H]ponasterone A corresponds to approximately 15.2 U. Specific activity values (U/μg protein) can be calculated for different preparations of purified receptor and these reflect the purity of the preparation, the proportion of receptor that is functional, and the Kd value for that particular receptor.
(§2) Increasing concentrations of, ponasterone A, muristerone A, 20-hydroxyecdysone, inokosterone, and α-ecdysone (2β, 3β, 14α,22R, 25-pentahydroxy-5β-cholest-7-ene-6-one) were used to study the ability to compete with a 1.3 nM bindable concentration of [^3H] ponasterone A for binding to the Nv recombinant heterodimers NvEcR10DEF−NvUSPDEF and NvEcR11DEF−NvUSPDEF. IC50 values were obtained from smooth curves drawn through the data points (see FIG. 6), and from these Ki values were calculated using the Cheng-Prusoff equation (Cheng et at, 1973).

NvEcR10DEF-NvUSPDEF = NvEcR10DEF-NvUSPDEF (Nezara viridula, UniProt E5L6Y1); experiment: Competition binding with [3H]ponasterone A, NvEcR10DEF-NvUSPDEF; settings: for Ki: calculated from IC50 with the Cheng-Prusoff equation; for IC50: competition with 1.3 nM bindable [3H]ponasterone A
Description: as §1, §2

[1] = biological target: ecdysone receptor recombinant ligand binding domains (DEF regions) heterodimer; experiment: [3H]ponasterone A binding, Helicoverpa armigera recombinant ligand binding region heterodimer; settings: IMAC-purified Helicoverpa armigera heterodimer; previously studied by this group
Description: as §1, with “Differences in the assay over time were corrected for empirically by re-assaying the reference receptor preparation with each new batch of [^3H]ponasterone A and calculating a batch-specific adjustment that was incorporated into the numerical factor used to convert filter-bound cpm into ligand binding units.” left out, “receptor. […]” for “receptor.”

[2] = tested on: NvEcR11DEF-NvUSPDEF recombinant ecdysone receptor ligand binding region heterodimer; experiment: [3H]ponasterone A filter binding assay / equilibrium binding, NvEcR11DEF-NvUSPDEF; parameters: species or system Nezara viridula
Description: (§3) Ponasterone A binding data used in Kd determination for the purified recombinant heterodimers NvEcR10DEF−NvUSPDEF and NvEcR11DEF−NvUSPDEF (Kd curves). Rt=concentration of active receptor. L=free [^3H] Ponasterone A. All values in tables are given in pM.
as §1, with “Historically, IU was defined as the amount of [^3H]ponasterone A binding conveyed by a fixed volume of a specific receptor preparation. Differences in the assay over time were corrected for empirically by re-assaying the reference receptor preparation with each new batch of [^3H]ponasterone A and calculating a batch-specific adjustment that was incorporated into the numerical factor used to convert filter-bound cpm into ligand binding units.” left out, “receptor. […]” for “receptor.”

[3] = biological target: ecdysone receptor recombinant ligand binding domains (DEF regions) heterodimer; experiment: [3H]ponasterone A binding, Myzus persicae recombinant ligand binding region heterodimer; settings: IMAC-purified Myzus persicae heterodimer; previously studied by this group
Description: as §1, with “Differences in the assay over time were corrected for empirically by re-assaying the reference receptor preparation with each new batch of [^3H]ponasterone A and calculating a batch-specific adjustment that was incorporated into the numerical factor used to convert filter-bound cpm into ligand binding units.” left out, “receptor. […]” for “receptor.”

[4] = biological target: ecdysone receptor recombinant ligand binding domains (DEF regions) heterodimer; experiment: [3H]ponasterone A binding, Bemisia tabaci recombinant ligand binding region heterodimer; settings: IMAC-purified Bemisia tabaci heterodimer; previously studied by this group
Description: as §1, with “Differences in the assay over time were corrected for empirically by re-assaying the reference receptor preparation with each new batch of [^3H]ponasterone A and calculating a batch-specific adjustment that was incorporated into the numerical factor used to convert filter-bound cpm into ligand binding units.” left out, “receptor. […]” for “receptor.”

[5] = tested on: NvEcR10DEF-NvUSPDEF recombinant ecdysone receptor ligand binding region heterodimer; experiment: [3H]ponasterone A filter binding assay / equilibrium binding, NvEcR10DEF-NvUSPDEF; parameters: species or system Nezara viridula
Description: as §3
as §1, with “Historically, IU was defined as the amount of [^3H]ponasterone A binding conveyed by a fixed volume of a specific receptor preparation. Differences in the assay over time were corrected for empirically by re-assaying the reference receptor preparation with each new batch of [^3H]ponasterone A and calculating a batch-specific adjustment that was incorporated into the numerical factor used to convert filter-bound cpm into ligand binding units.” left out, “receptor. […]” for “receptor.”

[6] = biological target: ecdysone receptor recombinant ligand binding domains (DEF regions) heterodimer; experiment: [3H]ponasterone A binding, Lucilia cuprina recombinant ligand binding region heterodimer; settings: IMAC-purified Lucilia cuprina heterodimer; previously studied by this group
Description: as §1, with “Differences in the assay over time were corrected for empirically by re-assaying the reference receptor preparation with each new batch of [^3H]ponasterone A and calculating a batch-specific adjustment that was incorporated into the numerical factor used to convert filter-bound cpm into ligand binding units.” left out

[7] = biological target: T1, FLAG-tagged NvUSPDEF (DEF domains / ligand binding region of Nezara viridula ultraspiracle protein) (Nezara viridula); experiment: IMAC co-purification of the heterodimer through the His6 tag on EcRDEF, from Sf9 cell extracts
T1 construct: Co-expressed with His6-EcRDEF (isoform 10 or 11) in Sf9 cells; also called FLAG USPDEF; FLAG USPDEF5.1
T1 chain: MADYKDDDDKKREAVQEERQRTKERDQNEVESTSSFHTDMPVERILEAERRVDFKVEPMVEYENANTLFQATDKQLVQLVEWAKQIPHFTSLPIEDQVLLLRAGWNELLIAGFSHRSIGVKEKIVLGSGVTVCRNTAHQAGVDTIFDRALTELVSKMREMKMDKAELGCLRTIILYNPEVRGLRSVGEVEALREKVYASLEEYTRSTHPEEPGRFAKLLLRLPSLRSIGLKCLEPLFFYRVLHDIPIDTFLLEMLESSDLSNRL

Molecule: 2β, 3β, 14α, 20R,22R,25-hexahydroxy-5β-cholest-7-′ene-6-one [20-hydroxyecdysone]
- Ki (NvEcR11DEF-NvUSPDEF): 3800 nM
- IC50 (NvEcR11DEF-NvUSPDEF): 4500 nM
- Ki (NvEcR10DEF-NvUSPDEF): 3600 nM
- IC50 (NvEcR10DEF-NvUSPDEF): 4000 nM

Molecule: CC(CO)CC[C@@H](O)[C@](C)(O)[C@H]1CC[C@@]2(O)C3=CC(=O)[C@@H]4C[C@@H](O)[C@@H](O)C[C@]4(C)[C@H]3CC[C@]12C (stereo partly drawn) [Inokosterone]
- Ki (NvEcR11DEF-NvUSPDEF): 6800 nM
- IC50 (NvEcR11DEF-NvUSPDEF): 8000 nM
- Ki (NvEcR10DEF-NvUSPDEF): 6300 nM
- IC50 (NvEcR10DEF-NvUSPDEF): 7500 nM

Molecule: CC(C)CC[C@@H](O)[C@](C)(O)[C@H]1CC[C@@]2(O)C3=CC(=O)[C@]4(O)C[C@@H](O)[C@@H](O)C[C@]4(C)[C@H]3[C@H](O)C[C@]12C [Muristerone A]
- Ki (NvEcR11DEF-NvUSPDEF): 100 nM
- IC50 (NvEcR11DEF-NvUSPDEF): 120 nM
- Ki (NvEcR10DEF-NvUSPDEF): 100 nM
- IC50 (NvEcR10DEF-NvUSPDEF): 120 nM

Molecule: CC(C)CC[C@@H](O)[C@](C)(O)[C@H]1CC[C@@]2(O)C3=CC(=O)[C@@H]4C[C@@H](O)[C@@H](O)C[C@]4(C)[C@H]3CC[C@]12C [Ponasterone A]
- Ki (NvEcR11DEF-NvUSPDEF): 200 nM
- IC50 (NvEcR11DEF-NvUSPDEF): 280 nM
- Ki (NvEcR10DEF-NvUSPDEF): 200 nM
- IC50 (NvEcR10DEF-NvUSPDEF): 260 nM

Molecule: CC(C(O)CCC(C)(C)O)C1CCC2(O)C3=CC(=O)C4CC(O)C(O)CC4(C)C3CCC12C [α-Ecdysone, 2β, 3β, 14α,22R, 25-pentahydroxy-5β-cholest-7-ene-6-one]
- Ki (NvEcR11DEF-NvUSPDEF): 45200 nM
- IC50 (NvEcR11DEF-NvUSPDEF): 53000 nM
- Ki (NvEcR10DEF-NvUSPDEF): 46200 nM
- IC50 (NvEcR10DEF-NvUSPDEF): 55000 nM

Molecule: [^3H]ponasterone A
- Kd [1]: 2.5 ± 0.1 nM
- Specific activity ([3H]ponasterone A binding units per μg protein) ([2]; IMAC-purified NvEcR11DEF-NvUSPDEF, 2.2 nM bindable [3H]ponasterone A): 7.3 U/μg
- Kd ([2]; equilibrium binding of [3H]ponasterone A to IMAC-purified NvEcR11DEF-NvUSPDEF): 7.5 ± 0.8 nM
- Kd [3]: 0.7 ± 0.1 nM
- Specific activity ([3H]ponasterone A binding units per μg protein) [3]: 17.3-18.8 U/μg
- Kd [4]: 1.2 ± 0.2 nM
- Specific activity ([3H]ponasterone A binding units per μg protein) [4]: 11.3 U/μg
- Specific activity ([3H]ponasterone A binding units per μg protein) ([5]; IMAC-purified NvEcR10DEF-NvUSPDEF, 2.2 nM bindable [3H]ponasterone A): 5.0 U/μg
- Kd ([5]; equilibrium binding of [3H]ponasterone A to IMAC-purified NvEcR10DEF-NvUSPDEF): 6.8 ± 0.8 nM
- Kd [6]: 1 ± 0.1 nM
- Specific activity ([3H]ponasterone A binding units per μg protein) [6]: 15.4-24.3 U/μg

B1: (His)6-tagged NvEcR10DEF (DEF domains / ligand binding region of Nezara viridula ecdysone receptor protein isoform NvEcR10) (receptor)
chain: MGMRGSHHHHHHRPECVVPEYQCAVKRKEKKAQKDKDKPVSTTNGSPESIKVEEPHRVVYKTEGETLGRPVPINGVKPVSPEQEELIHRLVYFQNEYEHPSEEDLRRIVSNTPNEDEEQSDQRFRHLTEITILTVQLIVEFAKRLPGFDKLLREDQIALLKACSSEVMMLRMARKYDATTDSILFANNQPYNRESYSLAGMGDVIEDLLRFCRHMFNMKVDNAEYALLTAIVIFSERPALIEGWKVEKIQEIYLEALKSYVDNRSRPRSPTIFAKLLSVLTELRTLGNQNSEMCFSLKLQNKKLPPFLAEIWDVNT
notes: Co-expressed with FLAG-NvUSPDEF in Sf9 cells from one baculovirus; also called His6EcRDEF10.1; EcRDEF
- binding result [7]: binds

B2: (His)6-tagged NvEcR11DEF (DEF domains / ligand binding region of Nezara viridula ecdysone receptor protein isoform NvEcR11) (receptor)
chain: MGMRGSHHHHHHRPECVVPEYQCAVKRKEKKAQKDKDKPVSTTNGSPESIKVEEPHRVVYKTEGETLGRPVPINGVKPVSPEQEELIHRLVYFQNEYEHPSEEDLRRINTPNEDEEQSDQRFRHLTEITILTVQLIVEFAKRLPGFDKLLREDQIALLKACSSEVMMLRMARKYDATTDSILFANNQPYNRESYSLAGMGDVIEDLLRFCRHMFNMKVDNAEYALLTAIVIFSERPALIEGWKVEKIQEIYLEALKSYVDNRSRPRSPTIFAKLLSVLTELRTLGNQNSEMCFSLKLQNKKLPPFLAEIWDVNT
notes: Co-expressed with FLAG-NvUSPDEF in Sf9 cells from one baculovirus; also called His6EcRDEF11.1; EcRDEF
- binding result [7]: binds
